Ki data for 36 compounds are collected here from patent publication US8637511B2, “Aminopyrimidines useful as kinase inhibitors” (Vertex Pharmaceuticals Incorporated, priority 2005, dated 2014).

Read-outs that look alike come from different tables or passages of the source.

The target in test [1] is T1, FLT-3 (Homo sapiens, UniProt P36888).
T1 sequence (P36888 27-993): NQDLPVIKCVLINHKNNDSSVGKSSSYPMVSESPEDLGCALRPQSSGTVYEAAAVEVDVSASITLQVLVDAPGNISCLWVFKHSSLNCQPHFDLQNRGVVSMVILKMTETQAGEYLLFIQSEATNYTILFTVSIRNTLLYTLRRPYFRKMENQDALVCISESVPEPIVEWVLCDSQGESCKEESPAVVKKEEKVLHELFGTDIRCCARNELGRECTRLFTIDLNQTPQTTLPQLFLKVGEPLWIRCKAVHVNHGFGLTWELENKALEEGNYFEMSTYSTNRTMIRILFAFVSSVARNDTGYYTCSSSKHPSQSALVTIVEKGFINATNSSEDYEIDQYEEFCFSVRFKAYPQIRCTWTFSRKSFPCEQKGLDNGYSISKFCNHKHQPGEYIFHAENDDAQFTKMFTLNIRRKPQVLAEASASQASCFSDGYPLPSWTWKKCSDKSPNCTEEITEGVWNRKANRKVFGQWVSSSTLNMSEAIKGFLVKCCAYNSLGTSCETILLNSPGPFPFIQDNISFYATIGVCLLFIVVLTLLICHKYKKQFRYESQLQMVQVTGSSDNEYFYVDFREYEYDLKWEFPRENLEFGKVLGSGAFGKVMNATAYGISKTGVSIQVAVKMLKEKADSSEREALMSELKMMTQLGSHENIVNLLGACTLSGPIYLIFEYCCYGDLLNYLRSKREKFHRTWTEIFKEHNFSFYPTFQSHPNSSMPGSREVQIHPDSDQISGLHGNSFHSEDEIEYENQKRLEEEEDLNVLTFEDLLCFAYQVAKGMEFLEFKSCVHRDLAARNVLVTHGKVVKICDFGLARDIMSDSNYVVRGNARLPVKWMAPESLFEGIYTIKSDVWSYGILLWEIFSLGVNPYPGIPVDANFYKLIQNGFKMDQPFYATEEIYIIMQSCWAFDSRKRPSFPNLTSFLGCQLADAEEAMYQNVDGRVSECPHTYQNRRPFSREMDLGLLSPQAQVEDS
Kind of test: FLT-3 inhibition assay, radiometric filter-binding. It counts as biochemical.

The target of test [2] is T2, human Itk kinase (Homo sapiens, UniProt Q08881).
T2 sequence (Q08881 1-620): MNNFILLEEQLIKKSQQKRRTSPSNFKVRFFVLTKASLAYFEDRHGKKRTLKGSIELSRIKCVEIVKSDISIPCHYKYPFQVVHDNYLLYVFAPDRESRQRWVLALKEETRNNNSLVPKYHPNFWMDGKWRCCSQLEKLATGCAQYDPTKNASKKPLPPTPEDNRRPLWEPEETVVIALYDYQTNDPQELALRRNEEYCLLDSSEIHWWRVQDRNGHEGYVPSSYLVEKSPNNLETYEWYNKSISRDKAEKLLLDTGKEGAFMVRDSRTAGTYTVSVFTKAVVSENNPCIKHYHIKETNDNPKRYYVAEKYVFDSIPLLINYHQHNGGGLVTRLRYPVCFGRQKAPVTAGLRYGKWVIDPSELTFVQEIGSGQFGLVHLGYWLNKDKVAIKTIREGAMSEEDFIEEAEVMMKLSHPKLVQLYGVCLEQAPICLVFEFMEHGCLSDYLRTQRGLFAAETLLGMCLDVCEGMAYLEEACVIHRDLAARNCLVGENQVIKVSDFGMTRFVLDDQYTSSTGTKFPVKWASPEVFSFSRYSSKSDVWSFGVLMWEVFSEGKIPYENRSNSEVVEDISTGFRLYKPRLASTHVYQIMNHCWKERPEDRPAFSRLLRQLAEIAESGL
Kind of test: Itk inhibition assay: radioactivity-based assay. It counts as biochemical. The settings on record: Ki(app). An outline of the steps:
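50 nM Itk with 3 μM SAM68 Δ332-443 peptide and 7.5 μM [γ-33P]ATP in MOPS pH 7.0, MgCl2, 25° C; compound (top 50 μM final, 2-fold dilutions, 2% DMSO) preincubated 10 min, reaction 10 min. Phosphocellulose filter capture and scintillation counting; Ki(app) by non-linear regression of initial rates.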

With `Cc1cc(Nc2cc(N3CCC3)nc(Sc3ccc(NC(=O)c4cnccc4C(F)(F)F)cc3)n2)[nH]n1` [Compound 59], the figures for the Ki in test [1] and in test [2] were 150 to 1000 nM and 100 to 1000 nM, respectively.

Turning to `Cc1cc(Nc2nc(Sc3ccc(NC(=O)CC(F)(F)F)cc3)nc(N3CC(F)(C4CC4)C3)c2F)[nH]n1` [Compound 178], in test [1], the Ki fell in the range of 150 to 1000 nM.

In test [1], `Cc1cc(Nc2cc(N3CC(F)(C4CC4)C3)nc(Sc3cnc4ccccc4c3)n2)[nH]n1` [Compound 206] returned a Ki not above 50 nM.

The compound `Cc1cc(Nc2cc(N3CC(C)(C#N)C3)nc(Sc3ccc(NC(=O)CC(F)(F)F)cc3)n2)[nH]n1` [Compound 169] displayed a Ki in test [1] not above 50 nM.

Regarding `Cc1cc(Nc2cc(N3CC(N4CC[C@H](F)C4)C3)nc(Sc3ccc(NC(=O)CC(F)(F)F)cc3)n2)[nH]n1` [Compound 185], the Ki in test [1] lay within 50 to 150 nM.

As to `Cc1cc(Nc2cc(N3CC(OC(=O)CN(C)C)(C4CC4)C3)nc(Sc3ccc(NC(=O)C4CC4)cc3)n2)n[nH]1` [Compound 119], the Ki in test [1] (read-out: FLT-3 Ki value) is not above 50 nM.

`Cc1cc(Nc2cc(N3CC(N4CCCC4)C3)nc(Sc3ccc(NC(=O)CC(F)(F)F)cc3)n2)[nH]n1` [Compound 204] returned a Ki in test [1] of 50 to 150 nM.

The compound `Cc1cnc(Nc2cc(N3CC(F)(C4CC4)C3)nc(Oc3ccc(NC(=O)CC(F)(F)F)cc3)n2)s1` [Compound 181] came in with a Ki in test [1] not above 50 nM.

The compound `Cc1cc(Nc2cc(N3CC(O)(C4CC4)C3)nc(Sc3cc(F)c4nc(C)ccc4c3)n2)[nH]n1` [Compound 172] had a Ki in test [1] of 50 to 150 nM.

On to `CCC(=O)Nc1ccc(Sc2nc(Nc3cc(C)n[nH]3)cc(N3CC4(C3)OCC4(C)C)n2)cc1` [Compound 92], for which the Ki in test [1] (read-out: FLT-3 Ki value) is not above 50 nM.

`CCOC1CN(c2cc(Nc3cc(C)[nH]n3)nc(Sc3ccc(NC(=O)c4ccccc4Cl)cc3)n2)C1` [Compound 37]: the Ki in test [1] was 50 to 150 nM; in test [2], not above 100 nM.

`Cc1cc(Nc2cc(N3CCC3)nc(Sc3ccc(NC(=O)c4ccc(-c5ccccc5)cc4Cl)cc3)n2)[nH]n1` [Compound 83]: the Ki in test [1] (read-out: FLT-3 Ki value) was 150 to 1000 nM.

In test [1], `Cc1cc(Nc2cc(N3CC(F)(C4CC4)C3)nc(Sc3ccc(C(=O)NCC(F)(F)F)cc3)n2)[nH]n1` [Compound 205] yielded a Ki of 50 to 150 nM.

Compound `Cc1cc(Nc2cc(N3CC(F)(C4CC4)C3)nc(Oc3ccc(NC(=O)CC(F)(F)F)cc3)n2)[nH]n1` [Compound 144] had a Ki in test [1] not above 50 nM.

As for `Cc1cc(Nc2cc(N3CC(O)(C4CC4)C3)nc(Sc3ccc4nc(C(F)(F)F)n(C)c4c3)n2)[nH]n1` [Compound 155], the Ki in test [1] is 50 to 150 nM.

As to `CCC(=O)Nc1ccc(Sc2nc(Nc3cc(C)n[nH]3)cc(N3CC(OC(C)(C)C)C3)n2)cc1` [Compound 67], the Ki lay within 50 to 150 nM in test [1] (read-out: FLT-3 Ki value) and 100 to 1000 nM in test [2].

The compound `Cc1cc(Nc2cc(N3CC(F)(C4CC4)C3)nc(Sc3ccc(NS(C)(=O)=O)cc3)n2)[nH]n1` [Compound 151] had a Ki in test [1] not above 50 nM.

For `Cc1cc(Nc2cc(N3CC(OC(C)C)C3)nc(Sc3ccc(NC(=O)c4ccccc4Cl)cc3)n2)n[nH]1` [Compound 38], the Ki in test [1] is 150 to 1000 nM; in test [2], not above 100 nM.

`Cc1cc(Nc2cc(N3CC(C)(O)C3)nc(Sc3ccc(NC(=O)c4ccccc4Cl)cc3)n2)[nH]n1` [Compound 50]: the Ki in test [1] is not above 50 nM; in test [2] it was not above 100 nM.

For the compound `COC1(C)CN(c2cc(Nc3cc(C)n[nH]3)nc(Sc3ccc(NC(=O)c4ccccc4Cl)cc3)n2)C1` [Compound 51], the Ki in test [1] was 50 to 150 nM; in test [2], not above 100 nM.

`Cc1cc(Nc2cc(N3CC(O)(C4CC4)C3)nc(Sc3ccc4nc(C(F)(F)F)ccc4c3)n2)[nH]n1` [Compound 186]: the Ki in test [1] lay within 50 to 150 nM.

On to `Cc1cc(Nc2cc(N3CC(N4CCOCC4)C3)nc(Sc3ccc4nc(CC(F)(F)F)n(C)c4c3)n2)[nH]n1` [Compound 177], for which the Ki in test [1] is 150 to 1000 nM.

As to `Cc1cc(Nc2cc(N3CC(N4CCOCC4)C3)nc(Sc3ccc4c(c3)CN(CC(F)(F)F)C4=O)n2)[nH]n1` [Compound 173], in test [1], the Ki is not above 50 nM.

For `Cc1cc(Nc2cc(N3CC(C)(C(C)(C)F)C3)nc(Sc3ccc(NC(=O)CC(F)(F)F)cc3)n2)[nH]n1` [Compound 183], in test [1], the Ki is not above 50 nM.

`CCC(=O)Nc1ccc(Sc2nc(Nc3cc(C)n[nH]3)cc(N3CC(C)(N4CCOCC4)C3)n2)cc1` [Compound 88] returned a Ki in test [1] not above 50 nM.

Turning to `Cc1cc(Nc2cc(N3CC(F)(C4CC4)C3)nc(Sc3ccc(NC(=O)C4(C)CC4)cc3)n2)[nH]n1` [Compound 203], the Ki in test [1] (read-out: FLT-3 Ki value) fell in the range of 150 to 1000 nM.

As to `CCC(=O)Nc1ccc(Sc2nc(Nc3cc(C)n[nH]3)cc(N3CC(N4CCOCC4)C3)n2)cc1` [Compound 68], the Ki in test [1] (read-out: FLT-3 Ki value) was 50 to 150 nM; in test [2], 100 to 1000 nM.

Consider `Cc1cc(Nc2cc(N3CC(O)(C4CC4)C3)nc(Sc3ccc(NC(=O)C4CC4)c(F)c3)n2)[nH]n1` [Compound 109], for which the Ki in test [1] (read-out: FLT-3 Ki value) was not above 50 nM.

On to `CC(C)(C)c1cc(Nc2cc(N3CCC3)nc(Sc3ccc(NC(=O)c4ccccc4Cl)cc3)n2)n[nH]1` [Compound 69], for which the results for the Ki in test [1] and in test [2] were 150 to 1000 nM and 1000 to 2000 nM, respectively.

Consider `COCc1cc(Nc2cc(N3CCC3)nc(Sc3ccc(NC(=O)c4ccccc4Cl)cc3)n2)n[nH]1` [Compound 82], for which the Ki in test [1] is 150 to 1000 nM; in test [2] it was 100 to 1000 nM.

As for `CCC(=O)Nc1ccc(Sc2nc(Nc3cc(C)n[nH]3)cc(N3CC(C)(N4CCCC4)C3)n2)cc1` [Compound 89], the Ki in test [1] (read-out: FLT-3 Ki value) is not above 50 nM.

On to `Cc1cc(Nc2cc(N3CC(C)(F)C3)nc(Sc3ccc(NC(=O)CC(F)(F)F)cc3)n2)n[nH]1` [Compound 168, N-(4-(4-(5-methyl-1H-pyrazol-3-ylamino)-6-(3-fluoro-3-methylazetidin-1-yl)pyrimidin-2-ylthio)phenyl)-3,3,3-trifluoropropanamide], for which the Ki in test [1] is not above 50 nM.

In turn, `CCC(=O)Nc1ccc(Sc2nc(Nc3cc(C)n[nH]3)cc(N3CC(OC)(C(C)(C)C)C3)n2)cc1` [Compound 90] came in with a Ki in test [1] not above 50 nM.

Consider `Cc1cc(Nc2cc(N3CCC3)nc(Sc3ccc(NC(=O)Cc4ccccc4Cl)cc3)n2)[nH]n1` [Compound 57], for which the values for the Ki in test [1] (read-out: FLT-3 Ki value) and in test [2] were 150 to 1000 nM and 100 to 1000 nM, respectively.

The compound `CC(C)=C1CN(c2cc(Nc3cc(C)n[nH]3)nc(Sc3ccc(NC(=O)CC(F)(F)F)cc3)n2)C1` [Compound 184] gave a Ki in test [1] of 50 to 150 nM.

Take `Cc1cc(Nc2cc(N3CC(F)(C4CC4)C3)nc(Sc3ccc(NC(=O)CN(C)C)cc3)n2)[nH]n1` [Compound 152]: the Ki in test [1] lay in the range of 150 to 1000 nM.
